# Laboratory results: patent US9802927B2, “Oxadiazine compounds and methods of use thereof” (Denali Therapeutics, Inc., priority 2015, dated 2017)
# System: Aβ42
# Experiment: In vitro cell screening assay in H4 cells expressing human APP751: Aβ42 by sandwich ELISA
# Format: cell-based
# Settings: Homo sapiens, compounds 0.003-10 μM, incubated overnight (16-18 h), sandwich ELISA of supernatant
# Protocol: Human neuroglioma H4 cells were transfected with a pcDNA3.1 plasmid expressing human wild type APP751 cDNA and a stable cell line was generated using G418 selection. Cells were plated at 15,000 cells/well in Costar 96-well plates and placed at 37° C. and 5% CO2. Six hours after plating, cells were washed three times with Pro293™ chemically defined medium, followed by addition of compounds (0.003-10 μM, final DMSO concentration of 0.33%). Plates were incubated overnight (16-18 h) and supernatant was removed for quantification of Aβ peptides by sandwich ELISA. Cytotoxicity was evaluated using Cell-Titer 96W AQueous One Solution Cell Proliferation Assay according to the manufacturer's protocol.
# Aβ peptide levels were quantified by sandwich ELISA. 96-well plates were coated with C-terminal specific Aβ antibodies recognizing either Aβ37, Aβ38, Aβ40, Aβ42, Aβ43 or a N-terminal specific Aβ antibody to detect Aβ 1-x. Plates were then blocked overnight at 4° C. with 1% bovine serum albumin (BSA) in PBS-T. Plates were washed and 100 μl of cultured cell supernatant or synthetic Aβ peptide standards and a detection antibody (4G8-HRP) were applied to the blocked plate and incubated overnight at 4° C. The next day, wells were washed before the addition of detection substrate (TMB peroxidase). Plates were then read for absorbance at 450 nm on a Molecular Devices SpectraMax M5e Microplate Reader.
# Compound-treated samples were normalized to samples treated with DMSO alone (no inhibition) and to samples treated with DAPT. EC50 values were calculated from values reported as percent of DMSO controls using nonlinear regression, based on a sigmoidal dose response (variable slope) model. GraphPAD software from Prism used for calculation.
row,EC50 [nM],SMILES
1,1730,"COc1nc(C2=NOCC(c3cscn3)N2)ccc1-n1cnc(C)c1 (single isomer, unassigned; (+)) [Example 156A, (+)-3-(6-methoxy-5-(4-methyl-1H-imidazol-1-yl)pyridin-2-yl)-5-(thiazol-4-yl)-5,6-dihydro-4H-1,2,4-oxadiazine]"

# Same assay, conditions: compounds 0.003-10 μM, incubated overnight (16-18 h), sandwich ELISA of supernatant
row,SMILES,EC50 [nM]
1,"COc1nc(C2=NOCC(c3ccc(Cl)c(Cl)c3)N2)ccc1-n1cnc(C)c1 (single isomer, unassigned; (-)) [Example 49A, (−)-5-(3,4-dichlorophenyl)-3-(6-methoxy-5-(4-methyl-1H-imidazol-1-yl)pyridin-2-yl)-5,6-dihydro-4H-1,2,4-oxadiazine]",> 3000
2,"COc1nc(C2=NOCC(c3cn(C4CC4)c4cccc(F)c34)N2)ccc1-n1cnc(C)c1 (single isomer, unassigned; (-)) [Example 222B, (−)-5-(1-cyclopropyl-4-fluoro-1H-indol-3-yl)-3-(6-methoxy-5-(4-methyl-1H-imidazol-1-yl)pyridin-2-yl)-5,6-dihydro-4H-1,2,4-oxadiazine]",68.6
3,"COc1cccc(C2CON=C(c3ccc(-n4cnc(C)c4)c(OC)n3)N2)c1 (single isomer, unassigned; (+)) [Example 145B, (+)-3-(6-methoxy-5-(4-methyl-1H-imidazol-1-yl)pyridin-2-yl)-5-(3-methoxyphenyl)-5,6-dihydro-4H-1,2,4-oxadiazine]",197
4,"COc1nc(C2=NOCC(c3ccc(F)cc3)N2)ccc1-n1cnc(C)c1 (single isomer, unassigned) [Example 40A, 5-(4-fluorophenyl)-3-(6-methoxy-5-(4-methyl-1H-imidazol-1-yl)pyridin-2-yl)-5,6-dihydro-4H-1,2,4-oxadiazine]",> 3000
5,"COc1nc(C2=NOCC(c3oc4ccc(F)cc4c3C)N2)ccc1-n1cnc(C)c1 (single isomer, unassigned; (+)) [Example 101B, (+)-5-(5-fluoro-3-methylbenzofuran-2-yl)-3-(6-methoxy-5-(4-methyl-1H-imidazol-1-yl)pyridin-2-yl)-5,6-dihydro-4H-1,2,4-oxadiazine]",10.8
6,"COc1nc(C2=NOCC(c3nn(C)c4ccccc34)N2)ccc1-n1cnc(C)c1 (single isomer, unassigned; (-)) [Example 124A, (−)-3-(6-methoxy-5-(4-methyl-1H-imidazol-1-yl)pyridin-2-yl)-5-(1-methyl-1H-indazol-3-yl)-5,6-dihydro-4H-1,2,4-oxadiazine]",1060
7,"COc1nc(C2=NOCC(c3ccc4nc(C)sc4c3)N2)ccc1-n1cnc(C)c1 (single isomer, unassigned; (-)) [Example 238A, (−)-3-(6-methoxy-5-(4-methyl-1H-imidazol-1-yl)pyridin-2-yl)-5-(2-methylbenzo[d]thiazol-6-yl)-5,6-dihydro-4H-1,2,4-oxadiazine]",> 3000
8,"COc1nc(C2=NOCC(c3cccc(C#N)c3)N2)ccc1-n1cnc(C)c1 (single isomer, unassigned; (+)) [Example 141B, (+)-3-(3-(6-methoxy-5-(4-methyl-1H-imidazol-1-yl)pyridin-2-yl)-5,6-dihydro-4H-1,2,4-oxadiazin-5-yl) benzonitrile]",214
9,"COc1nc(C2=NOCC(c3ccc(C(C)(C)O)cc3)N2)ccc1-n1cnc(C)c1 (single isomer, unassigned; (-)) [Example 268A, (−)-2-(4-(3-(6-methoxy-5-(4-methyl-1H-imidazol-1-yl)pyridin-2-yl)-5,6-dihydro-4H-1,2,4-oxadiazin-5-yl)phenyl)propan-2-ol]",1440

# Results, then the molecule that gave them:
row,EC50 [nM],SMILES
1,1030,"COc1nc(C2=NOCC(c3cccc(C4CC4)c3)N2)ccc1-n1cnc(C)c1 (single isomer, unassigned; (-)) [Example 127A, (−)-5-(3-cyclopropylphenyl)-3-(6-methoxy-5-(4-methyl-1H-imidazol-1-yl)pyridin-2-yl)-5,6-dihydro-4H-1,2,4-oxadiazine]"
2,21.4,"COc1nc(C2=NOCC(c3ccc(C(F)(F)F)c(F)c3)N2)ccc1-n1cnc(C)c1 (single isomer, unassigned) [Example 121B, 5-(3-fluoro-4-(trifluoromethyl)phenyl)-3-(6-methoxy-5-(4-methyl-1H-imidazol-1-yl)pyridin-2-yl)-5,6-dihydro-4H-1,2,4-oxadiazine]"
3,763,"COc1nc(C2=NOCC(c3ccc(C(C)(C)C)cc3)N2)ccc1-n1cnc(C)c1 (single isomer, unassigned; (-)) [Example 235A, (−)-5-(4-(tert-butyl)phenyl)-3-(6-methoxy-5-(4-methyl-1H-imidazol-1-yl)pyridin-2-yl)-5,6-dihydro-4H-1,2,4-oxadiazine]"
4,> 3000,"COc1nc(C2=NOCC(c3ccc(C(F)(F)F)cc3)N2)ccc1-n1cnc(C)c1 (single isomer, unassigned; (-)) [Example 59A, (−)-3-(6-methoxy-5-(4-methyl-1H-imidazol-1-yl)pyridin-2-yl)-5-(4-(trifluoromethyl)phenyl)-5,6-dihydro-4H-1,2,4-oxadiazine]"
5,1290,"COc1nc(C2=NOCC(c3cn(C)c4ccccc34)N2C)ccc1-n1cnc(C)c1 (single isomer, unassigned; (-)) [Example 200B, (−)-3-(6-methoxy-5-(4-methyl-1H-imidazol-1-yl)pyridin-2-yl)-4-methyl-5-(1-methyl-1H-indol-3-yl)-5,6-dihydro-4H-1,2,4-oxadiazine]"
6,70.4,"COc1cc2c(cc1Cl)c(C1CON=C(c3ccc(-n4cnc(C)c4)c(OC)n3)N1)cn2C (single isomer, unassigned; (-)) [Example 255A, (−)-5-(5-chloro-6-methoxy-1-methyl-1H-indol-3-yl)-3-(6-methoxy-5-(4-methyl-1H-imidazol-1-yl)pyridin-2-yl)-5,6-dihydro-4H-1,2,4-oxadiazine]"
7,21.8,"COc1nc(C2=NOCC(c3ccc(OC(F)(F)F)cc3)N2)ccc1-n1cnc(C)c1 (single isomer, unassigned; (+)) [Example 70B, (+)-3-(6-methoxy-5-(4-methyl-1H-imidazol-1-yl)pyridin-2-yl)-5-(4-(trifluoromethoxy)phenyl)-5,6-dihydro-4H-1,2,4-oxadiazine]"
8,1280,"COc1nc(C2=NOCC(c3cc4ccc(Cl)cc4o3)N2)ccc1-n1cnc(C)c1 (single isomer, unassigned; (-)) [Example 78A, (−)-5-(6-chlorobenzofuran-2-yl)-3-(6-methoxy-5-(4-methyl-1H-imidazol-1-yl)pyridin-2-yl)-5,6-dihydro-4H-1,2,4-oxadiazine]"
9,281,"COc1nc(C2=NOCC(c3noc4ccccc34)N2)ccc1-n1cnc(C)c1 (single isomer, unassigned) [Example 174B, 3-(3-(6-methoxy-5-(4-methyl-1H-imidazol-1-yl)pyridin-2-yl)-5,6-dihydro-4H-1,2,4-oxadiazin-5-yl) benzo[d]isoxazole]"
10,9.1,"COc1nc(C2=NOCC(c3sc4ccccc4c3C)N2)ccc1-n1cnc(C)c1 (single isomer, unassigned; (+)) [Example 66B, (+)-3-(6-methoxy-5-(4-methyl-1H-imidazol-1-yl)pyridin-2-yl)-5-(3-methylbenzo [b]thiophen-2-yl)-5,6-dihydro-4H-1,2,4-oxadiazine]"
